Target: T1, RORγ ligand-binding domain fused to Gal4 (Homo sapiens, UniProt P51449)
T1 construct: Gal4 (galactose-responsive transcription factor); expressed in transfected cells; host or cells: HEK293
T1 sequence (P51449 269-508 limits assumed): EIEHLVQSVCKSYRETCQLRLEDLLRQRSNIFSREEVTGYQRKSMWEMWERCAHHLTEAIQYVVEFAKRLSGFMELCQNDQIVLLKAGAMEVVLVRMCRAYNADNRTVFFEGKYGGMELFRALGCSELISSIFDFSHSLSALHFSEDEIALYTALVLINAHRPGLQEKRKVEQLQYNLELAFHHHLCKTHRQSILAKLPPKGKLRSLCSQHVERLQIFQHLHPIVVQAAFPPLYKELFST
Test: RORγ Reporter Assay (Gal4)
Type: cell-based
Conditions: HEK293 cells co-transfected with RORγ LBD-Gal4 and luciferase reporter; 24 h incubation; absolute EC50; read-out: EC50
Experimental: The HEK293 cell line is co-transfected transiently with two plasmids, one with the RORγ ligand-binding domain fused to galactose-responsive transcription factor (Gal4), and the other with the luciferase reporter gene and Gal binding sites (UAS). This construction allows to determine the RORγ activity in a cellular system through the measurement of luminescence.
A suspension of RORγ reporter cells was dispensed into plates and cultured 2 h at 37° C. and 5% CO2. Media formulation consisted in DMEM/F-12 medium (Gibco) supplemented with 10% heat inactivated FBS (Sigma-Aldrich), non-essential aminoacids (Sigma-Aldrich), 2 mM Glutamax (Gibco) and 100 U/mL penicillin (Sigma-Aldrich). Dose-response curves with compounds were prepared in 100% DMSO and further diluted 100-fold in culture medium. Compound solutions were added to the plate containing cells (final DMSO concentration of 0.1%) and incubated for 24 h at 37° C. and 5% CO2. Luciferase detection reagent was added to each well, and relative light units (RLUs) were quantified from each assay well using a plate reading luminometer.
Values of average RLU±S.D. were computed for all treatment sets, followed by the calculations of percent-reduction of RORγ activity in response to respective test compound. The following formula was used: activity=100*[1−[x test compound/average vehicle] where the theoretical minimum reduction (0% reduction).

| Structure (SMILES) | EC50 |
| --- | --- |
| NC(=O)CN1CCC(CNc2ncnc(N(Cc3ccc(C(F)(F)F)cc3)C3CC3)c2F)C(C(F)(F)F)C1 (single isomer, unassigned) [Example A7-07-1, 2-(4-(((6-(cyclopropyl(4-(trifluoromethyl)benzyl)amino)-5-fluoropyrimidin-4-yl)amino)methyl)-3-(trifluoromethyl)piperidin-1-yl)acetamide] | 49 nM |
| NC(=O)CN1CCC(CNc2ncnc(N(Cc3ccc(C(F)(F)F)cc3)C3CC3)c2F)C(C(F)(F)F)C1 (single isomer, unassigned) [Example A7-07-2, 2-(4-(((6-(cyclopropyl(4-(trifluoromethyl)benzyl)amino)-5-fluoropyrimidin-4-yl)amino)methyl)-3-(trifluoromethyl)piperidin-1-yl)acetamide] | 93 nM |
| NC(=O)CN1CCC(CNc2ncnc(N(Cc3ccc(C(F)(F)F)cc3)C3CC3)c2F)C(C(F)(F)F)C1 (single isomer, unassigned) [Example A7-07-4, 2-(4-(((6-(cyclopropyl(4-(trifluoromethyl)benzyl)amino)-5-fluoropyrimidin-4-yl)amino)methyl)-3-(trifluoromethyl)piperidin-1-yl)acetamide] | 170 nM |
| NC(=O)CN1CC[C@@H](CNc2ncnc(N(Cc3ccc(OC(F)F)cc3F)C3CCC3)c2F)[C@H](O)C1 (single isomer, unassigned) [Example A7-15-1] | 51 nM |
| NC(=O)CN1CC[C@@H](CNc2ncnc(N(Cc3ccc(C(F)(F)F)cc3)C3CCC3)c2F)[C@H](O)C1 (single isomer, unassigned) [Example A7-16-1] | 25 nM |
| NC(=O)CN1CC[C@H](CNc2ncnc(N(Cc3cnc(C(F)(F)F)nc3)C3CC3)c2F)[C@@H](O)C1 (single isomer, unassigned) [Example A7-17-1] | 40 nM |
| NC(=O)CN1CC[C@H](CNc2ncnc(N(Cc3cnc(C(F)(F)F)nc3)C3CCC3)c2F)[C@@H](O)C1 (single isomer, unassigned) [Example A7-18-1] | 140 nM |
| NC(=O)CN1CC[C@H](CNc2ncnc(N(Cc3cnc(C(F)(F)F)nc3)C3CCC3)c2F)[C@@H](O)C1 (single isomer, unassigned) [Example A7-18-2] | 82 nM |
| CN(Cc1ccc(C(F)(F)F)cc1)c1ncnc(NC[C@H]2CCN(CC(N)=O)C[C@@H]2O)c1F (single isomer, unassigned) [Example A7-20-1] | 35 nM |
| CN(Cc1ccc(C(F)(F)F)cc1)c1ncnc(NC[C@H]2CCN(CC(N)=O)C[C@@H]2O)c1F (single isomer, unassigned) [Example A7-20-2] | 32 nM |
| CCN(Cc1ccc(C(F)(F)F)cc1)c1ncnc(NC[C@H]2CCN(CC(N)=O)C[C@@H]2O)c1F (single isomer, unassigned) [Example A7-21-1] | 9.3 nM |
| CCN(Cc1ccc(C(F)(F)F)cc1)c1ncnc(NC[C@H]2CCN(CC(N)=O)C[C@@H]2O)c1F (single isomer, unassigned) [Example A7-21-2] | 13 nM |
| NC(=O)CN1CC[C@H](CNc2ncnc(N(Cc3ccc(C(F)(F)F)cc3F)C3CC3)c2F)[C@@H](O)C1 (single isomer, unassigned) [Example A7-22-1] | 4.9 nM |
| NC(=O)CN1CC[C@H](CNc2ncnc(N(Cc3ccc(C(F)(F)F)cc3F)C3CC3)c2F)[C@@H](O)C1 (single isomer, unassigned) [Example A7-22-2] | 3.4 nM |
| NC(=O)CN1CC[C@@H](CNc2ncnc(N(Cc3ccc(C(F)(F)F)nc3)C3CCC3)c2F)[C@H](O)C1 (single isomer, unassigned) [Example A7-23-1] | 81 nM |
| NC(=O)CN1CC[C@@H](CNc2ncnc(N(Cc3ccc(C(F)F)nc3)C3CC3)c2F)[C@H](O)C1 (single isomer, unassigned) [Example A7-25-1] | 630 nM |
| CC(F)(F)c1ccc(CN(c2ncnc(NC[C@@H]3CCN(CC(N)=O)C[C@H]3O)c2F)C2CC2)cn1 (single isomer, unassigned) [Example A7-29-1] | 35 nM |
| NC(=O)CN1CC[C@@](O)(CNc2ncnc(N(Cc3ccc(C(F)(F)F)cc3)C3CC3)c2F)[C@H](O)C1 (single isomer, unassigned) [Example D5-02-1-2] | 61 nM |
| CCN(Cc1ccc(C(F)(F)F)cc1F)c1ncnc(NC[C@]2(O)CCN(CC(N)=O)C[C@H]2O)c1F (single isomer, unassigned) [Example D5-03-1-2] | 9.3 nM |
| NC(=O)CN1CC[C@@H](CNc2ncnc(N(Cc3ccc(OC(F)F)cc3F)C3CCC3)c2F)[C@H](O)C1 (stereo in doubt) [Example A7-15, rac-2-((3R,4R)-4-(((6-(cyclobutyl(4-(difluoromethoxy)-2-fluorobenzyl)amino)-5-fluoropyrimidin-4-yl)amino)methyl)-3-hydroxypiperidin-1-yl)acetamide] | 160 nM |
| NC(=O)CN1CC[C@H](CNc2ncnc(N(Cc3ccc(OC(F)F)cc3F)C3CCC3)c2F)[C@@H](O)C1 (stereo in doubt) [Example A7-15-2, rel-2-((3R,4R)-4-(((6-(cyclobutyl(4-(difluoromethoxy)-2-fluorobenzyl)amino)-5-fluoropyrimidin-4-yl)amino)methyl)-3-hydroxypiperidin-1-yl)acetamide] | 310 nM |
| NC(=O)CN1CC[C@@H](CNc2ncnc(N(Cc3ccc(C(F)(F)F)cc3)C3CCC3)c2F)[C@H](O)C1 (stereo in doubt) [Example A7-16, rac-2-((3R,4R)-4-(((6-(cyclobutyl(4-(trifluoromethyl)benzyl)amino)-5-fluoropyrimidin-4-yl)amino)methyl)-3-hydroxypiperidin-1-yl)acetamide] | 19 nM |
| NC(=O)CN1CC[C@H](CNc2ncnc(N(Cc3ccc(C(F)(F)F)cc3)C3CCC3)c2F)[C@@H](O)C1 (stereo in doubt) [Example A7-16-2, rel-2-((3R,4R)-4-(((6-(cyclobutyl(4-(trifluoromethyl)benzyl)amino)-5-fluoropyrimidin-4-yl)amino)methyl)-3-hydroxypiperidin-1-yl)acetamide] | 22 nM |
| NC(=O)CN1CC[C@@H](CNc2ncnc(N(Cc3ccc(C(F)F)nc3)C3CC3)c2F)[C@H](O)C1 (stereo in doubt) [Example A7-25, rac-2-((3R,4R)-4-(((6-(cyclopropyl((6-(difluoromethyl)pyridin-3-yl)methyl)amino)-5-fluoropyrimidin-4-yl)amino)methyl)-3-hydroxypiperidin-1-yl)acetamide] | 330 nM |
| NC(=O)CN1CC[C@H](CNc2ncnc(N(Cc3ccc(C(F)F)nc3)C3CC3)c2F)[C@@H](O)C1 (stereo in doubt) [Example A7-25-2, rel-2-((3R,4R)-4-(((6-(cyclopropyl((6-(difluoromethyl)pyridin-3-yl)methyl)amino)-5-fluoropyrimidin-4-yl)amino)methyl)-3-hydroxypiperidin-1-yl)acetamide] | 320 nM |
| CCN(Cc1ccc(C(F)(F)F)cc1F)c1ncnc(NC[C@@H]2CCN(CC(N)=O)C[C@H]2O)c1F (stereo in doubt) [Example A7-26, rac-2-((3R,4R)-4-(((6-(ethyl(2-fluoro-4-(trifluoromethyl)benzyl)amino)-5-fluoropyrimidin-4-yl)amino)methyl)-3-hydroxypiperidin-1-yl)acetamide] | 17 nM |
| COC(=O)C1(CNc2ncnc(N(Cc3ccc(C(F)(F)F)cc3)C3CC3)c2F)CCN(CC(N)=O)CC1 [Example A7-08, methyl 1-(2-amino-2-oxoethyl)-4-(((6-(cyclopropyl(4-(trifluoromethyl)benzyl)amino)-5-fluoropyrimidin-4-yl)amino)methyl)piperidine-4-carboxylate] | 15 nM |
| NC(=O)CN1CCC(F)(CNc2ncnc(N(Cc3ccc4c(c3)OCC(=O)N4)C3CC3)c2F)CC1 [Example A7-12] | 150 nM |
| Cn1c(=O)oc2cc(CN(c3ncnc(NCC4(F)CCN(CC(N)=O)CC4)c3F)C3CC3)ccc21 [Example A7-13] | 230 nM |
| CC(c1ccc(C(F)(F)F)cc1)N(c1ncnc(NCC2CCN(CC(N)=O)CC2)c1F)C1CC1 (stereo not drawn) [Example A7-34, 2-(4-(((6-(cyclopropyl(1-(4-(trifluoromethyl)phenyl)ethyl)amino)-5-fluoropyrimidin-4-yl)amino)methyl)piperidin-1-yl)acetamide] | 90 nM |

Same assay, conditions: compounds of the present disclosure; source: Table 2 herein; read-out: Gal4 assay EC50

| Structure (SMILES) | EC50 |
| --- | --- |
| NC(=O)CN1CCC(CO)(CNc2ncnc(N(Cc3ccc(C(F)(F)F)cc3)C3CC3)c2F)C(O)C1 (single isomer, unassigned) [Example C4-1-2, 2-(4-(((6-(Cyclopropyl(4-(trifluoromethyl)benzyl)amino)-5-fluoropyrimidin-4-yl)amino)methyl)-3-hydroxy-4-(hydroxymethyl)piperidin-1-yl)acetamide] | < 100 nM |

Same assay, conditions: compounds of the present disclosure; value from Table 2 herein; read-out: Gal4 assay EC50

| Structure (SMILES) | EC50 |
| --- | --- |
| NC(=O)CN1CC[C@H](CNc2ncnc(N(Cc3cnc(C(F)(F)F)nc3)C3CC3)c2F)[C@@H](O)C1 (single isomer, unassigned) [Example A7-17-1] | < 100 nM |
| CC(c1ccc(C(F)(F)F)cc1)N(c1ncnc(NCC2CCN(CC(N)=O)CC2)c1F)C1CC1 (stereo not drawn) [Example A7-34, 2-(4-(((6-(cyclopropyl(1-(4-(trifluoromethyl)phenyl)ethyl)amino)-5-fluoropyrimidin-4-yl)amino)methyl)piperidin-1-yl)acetamide] | < 100 nM |

— patent US12441704B2, “Compounds active towards nuclear receptors” (NUEVOLUTION A/S, priority 2019, dated 2025)
